Test results from PubChem BioAssay AID1918995 (Molecular Pharmacology Branch, DTP, NCI, 2023).

Test system: 324938-238-R-J1-PDC complex spheroid growth, % test/control
Assay: Anticancer human tumor 324938-238-R-J1-PDC patient-derived bladder carcinoma cell line growth inhibition [AhR]
Conditions: for IC50: curve of first compound; for viability, T/C: stronger effect = lower value; active = viability on the fitted dose curve at most 10% of control; inactive = the rest
In short: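 Spheroids combined tumor cells with HUVEC endothelial cells and human MSCs as stroma. AhR antagonists were paired with standard or investigational drugs, each dosed in half-log steps down from near clinical Cmax, or from 10 microM where Cmax was unknown.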

[1] = second compound 0.1 µM, first compound 0.000949 µM
[2] = second compound 0.1 µM, first compound 0.003 µM
[3] = second compound 0.1 µM, first compound 0.00949 µM
[4] = second compound 0.1 µM, first compound 0.03 µM
[5] = second compound 0.1 µM, first compound 0.0949 µM
[6] = second compound 0.1 µM, first compound 0.3 µM
[7] = second compound 0.316 µM, first compound 0.000949 µM
[8] = second compound 0.316 µM, first compound 0.003 µM
[9] = second compound 0.316 µM, first compound 0.00949 µM
[10] = second compound 0.316 µM, first compound 0.03 µM
[11] = second compound 0.316 µM, first compound 0.0949 µM
[12] = second compound 0.316 µM, first compound 0.3 µM
[13] = second compound 1 µM, first compound 0.000949 µM
[14] = second compound 1 µM, first compound 0.003 µM
[15] = second compound 1 µM, first compound 0.00949 µM
[16] = second compound 1 µM, first compound 0.03 µM
[17] = second compound 1 µM, first compound 0.0949 µM
[18] = second compound 1 µM, first compound 0.3 µM
[19] = second compound 3.16 µM, first compound 0.000949 µM
[20] = second compound 3.16 µM, first compound 0.003 µM
[21] = second compound 3.16 µM, first compound 0.00949 µM
[22] = second compound 3.16 µM, first compound 0.03 µM
[23] = second compound 3.16 µM, first compound 0.0949 µM
[24] = second compound 3.16 µM, first compound 0.3 µM
[25] = second compound 10 µM, first compound 0.000949 µM
[26] = second compound 10 µM, first compound 0.003 µM
[27] = second compound 10 µM, first compound 0.00949 µM
[28] = second compound 10 µM, first compound 0.03 µM
[29] = second compound 10 µM, first compound 0.0949 µM
[30] = second compound 10 µM, first compound 0.3 µM
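Note: spheroids exposed to agents for seven days before viability read.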

Nc1ncn(C2CC(O)C(CO)S2)c(=O)n1 (stereo not given) + Cc1ccccc1N=Nc1ccc(NC(=O)c2ccnn2C)c(C)c1
inactive: viability, T/C [1] 83.2% | viability, T/C [2] 95.4% | viability, T/C [3] 91.7% | viability, T/C [4] 78.5% | viability, T/C [5] 72.6% | viability, T/C [6] 53.4% | viability, T/C [7] 81.7% | viability, T/C [8] 90.2% | viability, T/C [9] 98.3% | viability, T/C [10] 82.6% | viability, T/C [11] 71.8% | viability, T/C [12] 54.3% | viability, T/C [13] 97.1% | viability, T/C [14] 87.4% | viability, T/C [15] 78.7% | viability, T/C [16] 78.7% | viability, T/C [17] 65% | viability, T/C [18] 55.4% | viability, T/C [19] 83.7% | viability, T/C [20] 85.4% | viability, T/C [21] 66% | viability, T/C [22] 70.4% | viability, T/C [23] 60.9% | viability, T/C [24] 48.5% | viability, T/C [25] 81.6% | viability, T/C [26] 71.4% | viability, T/C [27] 70.5% | viability, T/C [28] 68.8% | viability, T/C [29] 65.8% | viability, T/C [30] 48.7%
> 300 nM: IC50 (second compound 0.1 µM) | IC50 (second compound 0.316 µM) | IC50 (second compound 1 µM)
290 nM: IC50 (second compound 3.16 µM)
296 nM: IC50 (second compound 10 µM)

COc1cccc2c1C(=O)c1c(O)c3c(c(O)c1C2=O)CC(O)(C(=O)CO)CC3OC1CC(N)C(O)C(C)O1 (stereo not given) + CC(CO)NC(=O)c1cc(-c2ccc(Cl)cc2)nn(-c2cnn(C)c2)c1=O
< 31.6 nM: IC50 (second compound 0.1 µM) | IC50 (second compound 0.316 µM) | IC50 (second compound 1 µM) | IC50 (second compound 3.16 µM) | IC50 (second compound 10 µM)
inactive: viability, T/C (second compound 0.1 µM, first compound 0.0316 µM) 33.5% | viability, T/C (second compound 0.1 µM, first compound 0.1 µM) 29.2% | viability, T/C (second compound 0.1 µM, first compound 0.316 µM) 17.7% | viability, T/C (second compound 0.316 µM, first compound 0.0316 µM) 34.6% | viability, T/C (second compound 0.316 µM, first compound 0.1 µM) 28.6% | viability, T/C (second compound 0.316 µM, first compound 0.316 µM) 16.8% | viability, T/C (second compound 1 µM, first compound 0.0316 µM) 32.9% | viability, T/C (second compound 1 µM, first compound 0.1 µM) 30.9% | viability, T/C (second compound 1 µM, first compound 0.316 µM) 15.5% | viability, T/C (second compound 3.16 µM, first compound 0.0316 µM) 31% | viability, T/C (second compound 3.16 µM, first compound 0.1 µM) 36.1% | viability, T/C (second compound 3.16 µM, first compound 0.316 µM) 19.6% | viability, T/C (second compound 10 µM, first compound 0.0316 µM) 39.8% | viability, T/C (second compound 10 µM, first compound 0.1 µM) 35.4% | viability, T/C (second compound 10 µM, first compound 0.316 µM) 16.8%
active: viability, T/C (second compound 0.1 µM, first compound 1 µM) 2.6% | viability, T/C (second compound 0.1 µM, first compound 3.16 µM) 0.09% | viability, T/C (second compound 0.1 µM, first compound 10 µM) 0.19% | viability, T/C (second compound 0.316 µM, first compound 1 µM) 3.87% | viability, T/C (second compound 0.316 µM, first compound 3.16 µM) 0.08% | viability, T/C (second compound 0.316 µM, first compound 10 µM) 0.19% | viability, T/C (second compound 1 µM, first compound 1 µM) 1.51% | viability, T/C (second compound 1 µM, first compound 3.16 µM) 0.09% | viability, T/C (second compound 1 µM, first compound 10 µM) 0.19% | viability, T/C (second compound 3.16 µM, first compound 1 µM) 1.04% | viability, T/C (second compound 3.16 µM, first compound 3.16 µM) 0.09% | viability, T/C (second compound 3.16 µM, first compound 10 µM) 0.68% | viability, T/C (second compound 10 µM, first compound 1 µM) 0.25% | viability, T/C (second compound 10 µM, first compound 3.16 µM) 0.24% | viability, T/C (second compound 10 µM, first compound 10 µM) 0.29%

Nc1ncn(C2CC(O)C(CO)S2)c(=O)n1 (stereo not given) + Cc1cncc(-c2nc(NCCc3c[nH]c4ccccc34)c3ncn(C(C)C)c3n2)c1
> 300 nM: IC50 (second compound 0.1 µM) | IC50 (second compound 0.316 µM) | IC50 (second compound 1 µM) | IC50 (second compound 3.16 µM)
< 0.949 nM: IC50 (second compound 10 µM)
inactive: viability, T/C [1] 122% | viability, T/C [2] 113% | viability, T/C [3] 122% | viability, T/C [4] 95.6% | viability, T/C [5] 118% | viability, T/C [6] 126% | viability, T/C [7] 113% | viability, T/C [8] 102% | viability, T/C [9] 114% | viability, T/C [10] 99% | viability, T/C [11] 129% | viability, T/C [12] 130% | viability, T/C [13] 92.1% | viability, T/C [14] 134% | viability, T/C [15] 103% | viability, T/C [16] 111% | viability, T/C [17] 131% | viability, T/C [18] 126% | viability, T/C [19] 113% | viability, T/C [20] 99.5% | viability, T/C [21] 130% | viability, T/C [22] 98.2% | viability, T/C [23] 94.9% | viability, T/C [24] 120% | viability, T/C [25] 12.2% | viability, T/C [26] 16.9% | viability, T/C [27] 9.06% | viability, T/C [28] 13.4% | viability, T/C [29] 11.2% | viability, T/C [30] 10.7%
